Measured values as given in patent publication US20210195900A1, “FUNGICIDAL MIXTURES FOR SOYBEAN DISEASES” (priority 2018, published 2021).

Experiments:
[1] = system: Fusarium virguliforme (SDS); experiment: Soybean seed treatment field trial, SDS score at stage R6; format: in vivo; conditions: 9 = no disease, control 6.1
Method: (§1) Soybean seeds treated with penthiopyrad, fluopyram, a combination thereof, at indicated application rates, along with appropriate controls were grown in multiple field locations under a variety of pest pressures including sudden death syndrome (SDS).
Level of tolerance to Fusarium virguliforme (SDS) in soybean varieties based on SDS score was measured in multiple locations across multiple years. SDS score was determined at or during the soybean developmental stage R6.
Scale for assigning tolerance to SDS scores:
Scale 9=clean, no disease
Scale 8=Up to 10% of plants showing mild symptoms (yellow, chlorotic spots)
Scale 7=Up to 20% plants showing mild symptoms
Scale 6=up to 30% plants showing medium symptoms (necrotic spots develop in the chlorotic areas; considered the lowest ‘acceptable’ score)
Scale 5=40% or more of plants showing medium symptoms
Scale 4=50% or more plants showing medium to heavy symptoms
3, 2, or 1=1/3, 2/3, or complete leaf drop, respectively.
(§2) For those evaluations shown herein, the Treatment value is greater than or less than CONTROL, and statistically significant at (P-value <0.10).

[2] = system: soybeans; experiment: Soybean seed treatment field trial, grain yield (multi-year, multi-location); format: in vivo; conditions: control 60.4
Method: as §1, §2

| SMILES | SDS Score (1-9) ([1]; fluopyram 0.075 mg ai/seed) | SDS Score (1-9) ([1]; fluopyram 0.15 mg ai/seed) | Multi-year, Multi-loc Yield ([2]; fluopyram 0.075 mg ai/seed) [bu/acre] | Multi-year, Multi-loc Yield ([2]; fluopyram 0.15 mg ai/seed) [bu/acre] | SDS Score (1-9) ([1]; penthiopyrad 0.25 mg ai/seed) | Multi-year, Multi-loc Yield ([2]; penthiopyrad 0.25 mg ai/seed) [bu/acre] |
| --- | --- | --- | --- | --- | --- | --- |
| O=C(NCCc1ncc(C(F)(F)F)cc1Cl)c1ccccc1C(F)(F)F [Fluopyram, N-{2-[3-Chloro-5-(trifluoromethyl)-2-pyridinyl]ethyl}-2-(trifluoromethyl)benzamide] | 6.8 | 7.2 | 62.2 | 62.5 |  |  |
| CC(C)CC(C)c1sccc1NC(=O)c1cn(C)nc1C(F)(F)F (stereo not drawn) [Penthiopyrad, N-[2-(1,3-dimethylbutyl)-3-thienyl]-1-methyl-3-(trifluoromethyl)-1H-pyrazole-4-carboxamide] |  |  |  |  | 6.7 | 62.6 |
